18 molecules from patent publication EP2140864A2 (H. Lundbeck A/S, priority 2001, dated 2002) can be followed below.

Read-outs that look alike come from different tables or passages of the source. Where only a bound is given, the exact number is not on record here.

One assay concerns the target T1, human GAL2 receptor (Homo sapiens, UniProt O43603).
T1 construct: expressed in transfected cells
T1 sequence (O43603 1-387): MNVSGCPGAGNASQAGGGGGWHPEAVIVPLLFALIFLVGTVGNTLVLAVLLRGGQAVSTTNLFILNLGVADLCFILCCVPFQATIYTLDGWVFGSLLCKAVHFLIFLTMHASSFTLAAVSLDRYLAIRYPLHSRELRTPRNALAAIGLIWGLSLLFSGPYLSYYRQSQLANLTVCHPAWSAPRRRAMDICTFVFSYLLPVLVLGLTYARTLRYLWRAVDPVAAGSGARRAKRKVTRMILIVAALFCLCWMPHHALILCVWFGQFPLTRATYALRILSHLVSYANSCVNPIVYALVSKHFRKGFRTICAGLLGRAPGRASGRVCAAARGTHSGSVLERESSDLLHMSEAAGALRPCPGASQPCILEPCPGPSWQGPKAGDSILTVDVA
Put plainly: Radioligand binding at cloned human GAL2 receptor. The conditions noted are these: read-out: Ki GalR2. Here is the method:
The binding properties of the pyrimidines of the present invention were evaluated at the cloned human galanin receptors, GAL1, GAL2, and GAL3, using protocols described herein.
The binding properties of the indolones of the present invention were evaluated at the cloned human galanin receptors, GAL1, GAL2, and GAL3, using protocols described herein.
(§1) LM(tk-) cells were stably transfected with the human GAL1 or GAL3 receptor. CHO cells were stably transfected with the human GAL2 receptor.
(§2) cDNAs for the human and rat GAL1, and human and rat GAL3 receptors were transfected with a G-418 resistant gene into the mouse fibroblast LM(tk-) cell line by a calcium phosphate transfection method (Cullen, 1987). Stably transfected cells were selected with G-418. Human and rat GAL2 receptors were similarly transfected into CHO cells.
(§3) Membranes were harvested from stably transfected LM(tk-) cells. Adherent cells were washed twice in ice-cold phosphate buffered saline (138 mM NaCl, 8.1 mM Na2HPO4, 2.5 mM KCl, 1.2 mM KH2PO4, 0.9 mM CaCl2, 0.5 mM MgCl2, pH 7.4) and lysed by sonication in ice-cold sonication buffer (20 mM Tris-HCl, 5 mM EDTA, pH 7.7). Large particles and debris were cleared by low speed centrifugation (200 x g, 5 min, 4°C). Membranes were collected from the supernatant fraction by centrifugation (32,000 x g, 18 min, 4°C), washed with ice-cold hypotonic buffer, and collected again by centrifugation (32,000 x g, 18 min, 4°C). The final membrane pellet was resuspended by sonication into a small volume of ice-cold binding buffer (-1 ml for every 5 plates: 10 mM NaCl, 20 mM HEPES, 0.22 mM KH2PO4, 1.26 mM CaCl2, 0.81 mM MgSO4, pH 7.4). Protein concentration was measured by the Bradford method (Bradford, 1976) using Bio-Rad Reagent, with bovine serum albumin as a standard. Membranes were held on ice for up to one hour and used fresh, or flash frozen and stored in liquid nitrogen. Membranes were prepared similarly from CHO cells.
(§4) Galanin Recentors: Binding assays were performed according to the following published methods: human GAL3 (PCT International Publication No. WO 98/15570), human GAL1 (PCT International Publication No. WO 95/2260), human GAL2 (PCT International Publication No. WO 97/26853).
(§5) Binding data were analyzed using nonlinear regression and statistical techniques available in the GraphPAD Prism package (San Diego, CA). Enzymatic assay data were derived from a standard curve of reference compound data.

Another assay has as its target T2, human GAL3 receptor (Homo sapiens, UniProt O60755).
T2 construct: expressed in transfected cells
T2 sequence (O60755 1-368): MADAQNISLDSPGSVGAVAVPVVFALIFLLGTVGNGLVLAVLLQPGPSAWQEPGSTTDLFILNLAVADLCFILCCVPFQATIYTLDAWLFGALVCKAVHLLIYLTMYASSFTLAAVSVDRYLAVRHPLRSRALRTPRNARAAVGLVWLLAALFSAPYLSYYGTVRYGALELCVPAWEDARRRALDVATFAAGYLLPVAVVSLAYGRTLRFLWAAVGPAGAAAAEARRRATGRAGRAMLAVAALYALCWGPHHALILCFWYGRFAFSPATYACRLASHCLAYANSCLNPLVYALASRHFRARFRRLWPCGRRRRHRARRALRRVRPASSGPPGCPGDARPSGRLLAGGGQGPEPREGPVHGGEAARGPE
Put plainly: Radioligand binding at cloned human GAL3 receptor. Particulars: cloned human receptor, read-out: Ki GalR3. The essentials: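 Membranes from LM(tk-) cells stably expressing human GAL3, prepared in binding buffer (HEPES-based, pH 7.4), used for radioligand binding. Solvent at final assay concentration: 3% DMSO for indolones, 1% ethanol/0.09% pluronic F-127 for pyrimidines. Binding data analysed by nonlinear regression.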

A further assay concerns the target T3, human GAL1 receptor (Homo sapiens, UniProt P47211).
T3 construct: expressed in transfected cells
T3 sequence (P47211 1-349): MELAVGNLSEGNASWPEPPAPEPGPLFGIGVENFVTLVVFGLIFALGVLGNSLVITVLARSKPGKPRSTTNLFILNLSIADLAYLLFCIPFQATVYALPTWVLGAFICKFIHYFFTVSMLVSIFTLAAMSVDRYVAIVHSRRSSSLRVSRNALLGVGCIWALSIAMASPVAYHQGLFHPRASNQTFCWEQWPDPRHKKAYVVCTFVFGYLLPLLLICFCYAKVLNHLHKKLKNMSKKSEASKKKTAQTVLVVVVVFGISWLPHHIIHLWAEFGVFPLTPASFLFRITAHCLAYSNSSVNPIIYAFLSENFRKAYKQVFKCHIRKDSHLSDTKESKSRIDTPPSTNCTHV
Kind of assay: Radioligand binding at cloned human GAL1 receptor. The conditions noted are these: read-out: Ki GalR1. Here is the method: The binding properties of the pyrimidines of the present invention were evaluated at the cloned human galanin receptors, GAL1, GAL2, and GAL3, using protocols described herein. […]
as §1, §2, §3, §4, §5

For `Cc1ccc(Nc2cc(N(C)C)nc(NCCc3c[nH]c4ccccc34)n2)cc1` [Example 76], the figures for the Ki at human GAL2 receptor (pyrimidines), at human GAL3 receptor (pyrimidines) and on human GAL1 receptor (pyrimidines) were 1660 nM, 392 nM and 3800 nM, respectively.

Regarding `CN(C)c1cc(Nc2ccc(Cl)c(Cl)c2)nc(N(C)CCc2c[nH]c3ccccc23)n1` [Example 78], the Ki (as a rule, the equilibrium dissociation constant of an inhibitor or competing ligand from its target) on human GAL2 receptor (pyrimidines) is 1860 nM; on human GAL3 receptor (pyrimidines), 41 nM; on human GAL1 receptor (pyrimidines), 4940 nM.

For `Cc1ccc(Nc2cc(N(C)C)nc(N3CCOCC3c3ccccc3)n2)cc1` (stereo not drawn) [Example 82], the figures for the Ki at human GAL2 receptor (pyrimidines), at human GAL3 receptor (pyrimidines) and at human GAL1 receptor (pyrimidines) were greater than 5000 nM, 232 nM and greater than 5000 nM, respectively.

For `Cc1ccc(Nc2cc(N(C)C)nc(N3CCOC(c4ccccc4)C3)n2)cc1` (stereo not drawn) [Example 83], the Ki on human GAL2 receptor (pyrimidines) is greater than 5000 nM; at human GAL3 receptor (pyrimidines) it was 160 nM; on human GAL1 receptor (pyrimidines) it was greater than 5000 nM.

As for `Cc1ccc(Nc2cc(N(C)C)nc(N3CCN(c4ncccc4C(F)(F)F)CC3)n2)cc1` [Example 88], the Ki at human GAL2 receptor (pyrimidines) is 355 nM; on human GAL3 receptor (pyrimidines), 39 nM; on human GAL1 receptor (pyrimidines) it was 2190 nM.

Turning to `Cc1ccc(Nc2cc(N3CCN(c4ncccc4C(F)(F)F)CC3)nc(N3CCCCC3)n2)cc1` [Example 89], the Ki turned out to be 1270 nM at human GAL2 receptor (pyrimidines), 105 nM at human GAL3 receptor (pyrimidines) and 1120 nM at human GAL1 receptor (pyrimidines).

Turning to `COCC1CCCCN1c1cc(Nc2ccc(C)cc2)nc(N2CCN(c3ncccc3C(F)(F)F)CC2)n1` (stereo not drawn) [Example 90], the Ki on human GAL2 receptor (pyrimidines) was 2460 nM; on human GAL3 receptor (pyrimidines), 105 nM; at human GAL1 receptor (pyrimidines), greater than 5000 nM.

For `COc1ccccc1N=C1C(=O)N(c2ccccc2)c2ccccc21` [Example 91, 3-[(2-METHOXYPHENYL)IMINO]-1-PHENYL-1,3-DIHYDRO-2H-INDOL-2-ONE], the Ki on human GAL2 receptor (indolones) was greater than 10000 nM; at human GAL3 receptor (indolones) it was 527 nM; on human GAL1 receptor (indolones) it was greater than 10000 nM.

Turning to `Cc1cccc(N=C2C(=O)N(c3ccccc3)c3ccccc32)c1` [Example 93], the figures for the Ki on human GAL2 receptor (indolones), on human GAL3 receptor (indolones) and at human GAL1 receptor (indolones) were greater than 10000 nM, 171 nM and greater than 10000 nM, respectively.

For `Cc1ccc(N=C2C(=O)N(c3ccccc3)c3ccccc32)cc1` [Example 96], the Ki at human GAL2 receptor (indolones) was greater than 10000 nM; at human GAL3 receptor (indolones), 111 nM; at human GAL1 receptor (indolones), greater than 10000 nM.

Regarding `O=C1C(=Nc2ccc(F)cc2)c2ccccc2N1c1ccccc1` [Example 99, 3-[(4-FLUOROPHENYL)IMINO]-1-PHENYL-1,3-DIHYDRO-2H-INDOL-2-ONE], the Ki on human GAL2 receptor (indolones) is greater than 10000 nM; on human GAL3 receptor (indolones), 229 nM; on human GAL1 receptor (indolones), greater than 10000 nM.

`O=C1C(=Nc2ccc(Oc3ccccc3)cc2)c2ccccc2N1c1ccccc1` [Example 100, 3-[(4-PHENOXYPHENYL)IMINO]-1-PHENYL-1,3-DIHYDRO-2H-INDOL-2-ONE]: the Ki at human GAL2 receptor (indolones) is greater than 10000 nM; at human GAL3 receptor (indolones), 90 nM; on human GAL1 receptor (indolones), greater than 10000 nM.

In the case of `CCOc1ccc(N=C2C(=O)N(c3ccccc3)c3ccccc32)cc1` [Example 101, 3-[(4-ETHOXYPHENYL)IMINO]-1-PHENYL-1,3-DIHYDRO-2H-INDOL-2-ONE], the Ki at human GAL2 receptor (indolones) is greater than 10000 nM; on human GAL3 receptor (indolones), 305 nM; on human GAL1 receptor (indolones), greater than 10000 nM.

Take `COc1ccc(N=C2C(=O)N(c3ccccc3)c3ccccc32)cc1` [Example 102, 3-[(4-METHOXYPHENYL)IMINO]-1-PHENYL-1,3-DIHYDRO-2H-INDOL-2-ONE]: the Ki on human GAL2 receptor (indolones) is greater than 10000 nM; on human GAL3 receptor (indolones), 429 nM; at human GAL1 receptor (indolones), greater than 10000 nM.

With `Cc1cc(C)cc(N=C2C(=O)N(c3ccccc3)c3ccccc32)c1` [Example 104], the Ki at human GAL2 receptor (indolones) was greater than 10000 nM; at human GAL3 receptor (indolones), 143 nM; on human GAL1 receptor (indolones) it was greater than 10000 nM.

In the case of `C=CCN1C(=O)C(=Nc2ccc(Cl)c(Cl)c2)c2ccccc21` [Example 105, 1-ALLYL-3-[(3,4-DICHLOROPHENYL)IMINO]-1,3-DIHYDRO-2H-INDOL-2-ONE], the Ki at human GAL2 receptor (indolones) was greater than 10000 nM; at human GAL3 receptor (indolones), 97 nM; on human GAL1 receptor (indolones), greater than 10000 nM.

With `C=CCN1C(=O)C(=Nc2cc(Cl)cc(Cl)c2)c2ccccc21` [Example 106, 1-ALLYL-3-[(3,5-DICHLOROPHENYL)IMINO]-1,3-DIHYDRO-2H-INDOL-2-ONE], the Ki is greater than 10000 nM on human GAL2 receptor (indolones), 62 nM on human GAL3 receptor (indolones) and greater than 10000 nM on human GAL1 receptor (indolones).

Consider `CC(C)N1C(=O)C(=Nc2ccc(Br)cc2)c2ccccc21` [Example 107, 3-[(4-BROMOPHENYL)IMINO]-1-ISOPROPYL-1,3-DIHYDRO-2H-INDOL-2-ONE], for which the values for the Ki on human GAL2 receptor (indolones), on human GAL3 receptor (indolones) and at human GAL1 receptor (indolones) were greater than 10000 nM, 126 nM and greater than 10000 nM, respectively.
